# In PubChem BioAssay AID1996:
# Details: buffer; pH 7.4; 200.0 µM
row,SMILES,solubility kinetic [µg/mL]
1,CC(=O)/C(C#N)=C1\NC(=O)C(Cc2ccccc2C)S1 (stereo not drawn),> 43
2,Oc1ccc(N=Cc2c(O)ccc3ccccc23)cc1,< 0.6
3,CCCS(=O)(=O)N1CCCC(C(=O)N2CCCCC2)C1 (stereo not drawn),43
4,CC(=O)c1ccc(O)c(CSc2nncn2C)c1,> 39.5
5,CCc1ccc(OCC(=O)N2CC(C(=O)OC)Oc3ccccc32)cc1 (stereo not drawn),36.6
6,Clc1cc(Cl)cc(Nc2ncnc(-n3cccc3)n2)c1,< 0.1
7,O=C(O)CC1(CC(=O)NCc2ccc(-c3cccs3)cc2)CCCCC1,43.3
8,O=C(CSc1nc2ccccc2c(=O)n1Cc1ccc(F)cc1)NCC1CCCO1 (stereo not drawn),4.1
9,O=C(Cc1ccccc1[N+](=O)[O-])NCCCc1ccccc1,43.2
10,O=c1cc(C(F)(F)F)nc(-c2ccccc2OC(F)(F)F)[nH]1,> 48.6
11,CC1CCc2c(sc3[nH]c(=S)n(C)c(=O)c23)C1 (stereo not drawn),4.2
12,O=[N+]([O-])c1cccnc1Oc1ccccc1F,> 35.1
13,Cc1cc(C)nc(NC(=O)c2c(Cl)cccc2Cl)n1,> 44.4
14,CN(CC(=O)NCc1ccccc1Cl)CC(=O)Nc1cccc(F)c1,> 54.6
15,CCc1cccc(C)c1NC(=O)Cc1ccsc1,34.9
16,COc1cc(N2Cc3ccccc3C2)ccc1C=O,1.8
17,O=C(/C=C/c1ccccc1Cl)OCC(=O)c1ccc[nH]1,6.3
18,Cc1ccc(S(=O)(=O)CCC(=O)Nc2sccc2C(N)=O)cc1,> 52.9
19,CC(C)c1ccc(NC(=O)CCCC(=O)NCCc2ccccc2)cc1,6
20,COc1ccc(Cl)cc1NC(=O)COC(=O)C1CCCCC1,3.2
21,Cn1cccc1C(=O)OCc1nc2ccccc2c(=O)[nH]1,29.6
22,COC(=O)Cn1cnc2c(oc3ccccc32)c1=O,> 38.7
23,O=C(Nc1ccccc1Br)c1c(F)cccc1Cl,13.5
24,Cc1csc(SC(C)C(=O)Nc2ccccc2C)n1 (stereo not drawn),> 43.9
25,O=S(=O)(Nc1ccncc1Cl)c1cccc(Cl)c1Cl,> 50.6

row,SMILES,solubility kinetic [µg/mL]
1,Cc1ccc(S(=O)(=O)CCc2ccncc2)cc1,> 39.2
2,CCCCNCc1cc2ccccc2o1.Cl,31.7
3,O=C(CN1CCN(c2ccc([N+](=O)[O-])cc2)CC1)c1ccccc1,22.5
4,Cc1ccc(NC(=O)C(C)SCc2nc3sc4c(c3c(=O)[nH]2)CCCC4)nc1 (stereo not drawn),29.4
5,Cc1ccc(NC(=O)Nc2ccc3c(c2)OCO3)cc1F,< 0.3
6,COc1ccc(CCNC(=O)CNC(=O)c2ccco2)cc1,> 45.3
7,CCOc1ccccc1NC(=O)C1COc2ccccc2O1 (stereo not drawn),< 0.6
8,COc1ccccc1NC(=O)c1cc(Cl)nnc1Cl,> 44.7
9,CCOC(CNc1ncnc2sc(-c3ccccc3)cc12)OCC,18.6
10,COc1ccc(NC(=O)c2sc3nc(C)cc(C)c3c2N)cc1,< 0.2
11,CCN(Cc1ccncc1)C(=O)CSc1ccc2ccccc2c1,32.6
12,Cn1cc(C(=O)C(=O)N2CCOCC2)c2ccccc21,> 40.8
13,COc1cccc(CC(=O)Nc2ccc3c(c2)CCC3)c1,8.3
14,CCOC(=O)c1sc(=S)n(C)c1NC(=O)c1ccc(C(C)(C)C)cc1,3.4
15,COCC(=O)Nc1ccc2c(c1)OCC(=O)N2Cc1ccccc1F,46.4
16,O=C(COC(=O)c1c(Cl)ccc(Cl)c1Cl)NCC1CCCO1 (stereo not drawn),> 55
17,O=C(NCc1cccs1)C1CCCN(C(=O)Nc2ccccc2)C1 (stereo not drawn),21.7
18,COCc1c(C(=O)N2CCN(c3ccccc3C)CC2)oc2ccccc12,9.2
19,CC(OC(=O)c1ccncc1)C(=O)Nc1cccc([N+](=O)[O-])c1 (stereo not drawn),> 47.3
20,Nc1ncnc(Nc2cccc(F)c2)n1,30.6
21,Cc1ccc2c(c1)C1CN(C)CCC1N2S(=O)(=O)c1ccccc1F (stereo not drawn),> 54.1
22,Cc1ccc(SCC(=O)N(C)C2CCS(=O)(=O)C2)c(C)c1 (stereo not drawn),> 49.1
23,O=C(CCC(=O)c1ccc(Br)cc1)Nc1ccc(F)cc1,< 0.7
24,COc1ccc(CC(=O)N2CCN=C2SC)cc1OC,> 44.2
25,O=c1nc2n(c3cccc(Cl)c13)CCCCC2,31

row,SMILES,solubility kinetic [µg/mL]
1,O=C(Nc1ccc(CN2CCS(=O)(=O)CC2)cc1)c1ccccc1,31.4
2,CCOP(=O)(OCC)C(NC(=O)NC)C(N)=O (stereo not drawn),30.4
3,CCN1C(=O)/C(=C2\SC(N3CCOCC3)=NC2=O)c2ccccc21,0.9
4,CN(Cc1nc(-c2cccc(Cl)c2)no1)C1CCOCC1,36.9
5,CC(C)(C)c1ccc(C(=O)Nc2cccnc2)cc1,28
6,Cc1c(C(=O)N2CCN(C)CC2)oc2ccc(Br)cc12,> 50.6
7,O=C(CCCNC(=O)c1ccc(Cl)cc1)Nc1nccs1,10.3
8,Cc1nn(C)c(C)c1NC(=O)COc1ccc(F)cc1Br,> 53.4
9,O=C1CSC(=S)N1,> 20
10,Cc1ccc(C(CC(=O)N2CCCC2)c2ccccc2)c(O)c1 (stereo not drawn),> 46.4
11,CCCCOc1cc(C(=O)NCCN(CC)CC)c2ccccc2n1,> 51.5
12,O=C(NCCN1CCOCC1)Nc1cccc(Cl)c1,40.1
13,O=C(O)CCC(=O)Nc1ccc(Br)cc1C(=O)c1ccc(Cl)cc1,44.9
14,CN(CC(=O)Nc1ccc(F)cc1)CC(=O)N1CCc2ccccc21,> 51.2
15,CN1C(=O)c2ccccc2N(C)C1c1ccc(F)cc1 (stereo not drawn),30.7
16,Cc1cccc(NC(=O)CNC(=O)c2cccs2)n1,> 41.3
17,Cc1ccnc2c1ccc1ccccc12,< 0.4
18,COc1ccccc1NC(=O)N1C[C@@H]2C[C@@H](C1)c1cccc(=O)n1C2,> 50.9
19,CCN(CC)CCOC(=O)C(c1ccccc1)C1CCCCC1.Cl (stereo not drawn),> 53.1
20,CN(C)C1(CN=Cc2cc(Cl)cc([N+](=O)[O-])c2O)CCCCC1,> 51
21,CSc1nc2nc3c(cc2c(=O)n1-c1ccc(C)cc1)COC(C)(C)C3,2.3
22,COc1cc(CN2CCN(c3ncccn3)CC2)cc(OC)c1,> 47.2
23,O=C1CN(C(=O)COc2ccc(Cl)cc2Cl)c2ccccc2N1,3.1
24,CC(=O)Nc1ccc(S(=O)(=O)NC(C)CCc2ccccc2)cc1 (stereo not drawn),> 52
25,O=C(Cc1ccccc1)NC(=S)Nc1ccc(OC(F)F)cc1,11.2

row,SMILES,solubility kinetic [µg/mL]
1,COc1ccc(S(=O)(=O)NCc2ccc(F)cc2)cc1OC,> 48.8
2,NC(=S)C1COc2ccccc2O1 (stereo not drawn),> 29.3
3,CC(=O)c1sc(NCc2ccc(C)cc2)nc1C,38.6
4,O=C(Nc1ccc(F)cc1)Nc1ccc2ccccc2n1,< 0.2
5,NC(N)=NC(N)=Nc1ccccc1,> 26.6
6,O=C(COc1ncnc2cc(Cl)ccc12)c1ccc2c(c1)OCCO2,< 0.4
7,CC1(C)CC(=O)C(C=NCCN2CCN(C(=O)CCl)CC2)=C(O)C1,> 53.4
8,CCOc1cc(Br)c(C(C)NC(=O)c2cccnc2)cc1OCC (stereo not drawn),> 59
9,CC1CN(CC(=O)NC(C)c2ccccc2)CC(C)O1 (stereo not drawn),> 41.5
10,CCc1ccc(OCCOCCN2CCN(C)CC2)cc1.O=C(O)C(=O)O,54
11,N#C/C(=C\c1cccc(Br)c1)C(=O)N1CCCCC1,> 47.9
12,CC(OC(=O)c1cn(C)c2ccccc12)C(=O)N1CCCC1 (stereo not drawn),> 45.1
13,Cl.O=C(NC1CCCCC1)N1CCNCC1,> 37.2
14,Cc1ccc2cc(NC(=O)c3cccc(F)c3)ccc2n1,28.6
15,O=C(NCC1CCCCC1)c1cccnc1Cl,31.7
16,COc1ccc(S(=O)(=O)N2CCN(C(=O)C3CC3)CC2)cc1,48.6
17,COc1ccc(NC(=O)CSc2cc(C)ccc2C)cn1,45.1
18,CCC(=O)N1CCCC(C(=O)c2ccc(-c3ccccc3)cc2)C1 (stereo not drawn),29.9
19,CC1=CC(C)(C)N2C(=O)C(=Nc3ccc(O)cc3)c3cccc1c32,9.4
20,O=C(NCc1ccco1)c1cc(S(=O)(=O)NC2CC2)ccc1Br,> 59.9
21,COc1ccccc1S(=O)(=O)Nc1cccc(S(=O)(=O)N2CCCC2)c1,> 59.5
22,COc1ccc(NC(=O)N2CCCCCC2)c(OC)c1,> 41.8
23,O=C(COC(=O)C1CC(=O)N(Cc2ccco2)C1)Nc1ccc(F)cc1F (stereo not drawn),> 56.7
24,CC(O)CNCCCCOc1ccc(OCc2ccccc2)cc1 (stereo not drawn),40.7
25,O=C(COC(=O)c1cc(-c2ccccc2)nc2ccccc12)NC1CC1,6.6

row,SMILES,solubility kinetic [µg/mL]
1,O=C1CNC(=O)N1,> 15
2,COC(=O)CSc1nc2sc3c(c2c(=O)[nH]1)CCC3,15.7
3,COc1ccc(NC(=S)N2CCc3ccccc3C2)cc1OC,1.9
4,COc1cc2ccccc2cc1C(=O)NC1CCCCC1,25.3
5,COc1ccc(S(=O)(=O)N2CCCC2)c2ccccc12,0.9
6,Cc1ccc(C(=O)Nc2ccc3ccccc3c2)cc1,< 0.6
7,CCOc1ccc(N2C(=O)CC(NCC3CCCO3)C2=O)cc1 (stereo not drawn),> 47.8
8,CCC(C(=O)O)N1C(=O)C2CCCCC2C1=O (stereo not drawn),> 35.9
9,CC[n+]1ccc(/C=C/c2c[nH]c3ccccc23)cc1.[Cl-],32.8
10,Cc1ccc(NC(=O)CNC(=O)OCc2ccccc2)cc1C,10.3
11,Cc1ccc(S(=O)(=O)N2CCC(C(=O)NCC3CC3)CC2)cc1,31.7
12,Nc1c(Cl)ncnc1NCc1ccccc1,32.6
13,COc1ccc(NC(=O)COC(=O)c2ccc3ccccc3n2)cc1OC,6.7
14,O=C(Cn1cc([N+](=O)[O-])ccc1=O)N1CCc2ccccc2C1,> 47
15,Cn1ncc(Br)c1NC(=O)c1ccco1,> 40.5
16,CC1(C)C(=O)Nc2ccccc2N1C(=O)COC(=O)c1cccc(O)c1,20.3
17,CN(C)c1cccc(C(=O)NCCCSc2ccccc2)c1,17.9
18,O=S(=O)(CCN1CCOCC1)c1ccccc1,> 38.3
19,Cc1ccccc1SCC(=O)OCC(=O)NCc1ccccc1,> 49.4
20,Cc1ccc(NC(=O)Cc2ncon2)cc1Cl,> 37.8
21,O=C(NC1CCCCC1)c1cccc(OCc2ccccc2)c1,0.8
22,CSc1nc(-c2ccc(Cl)cc2)nc(N)c1C#N,< 0.1
23,N/C(=N\OC(=O)c1ccc(Cl)c(Cl)c1)c1cccc(CSc2ccccn2)c1,0.9
